Laboratory results: patent US6235759A, “Dihydropyridinones and pyrrolinones useful as alpha 1A adrenoceptor antagonists” (Merck & Co., Inc., priority 1999, dated 2001)

Experiments:
[1] = molecular target: T1, human alpha 1a adrenergic receptor (Homo sapiens, UniProt P35348); experiment: Screening Assay: Alpha 1a Adrenergic Receptor Binding ([125I]-HEAT competition)
T1 construct: expressed in transfected cells; host or cells: stably transfected human alpha 1a cell line (ATCC CRL 11140)
T1 sequence (P35348 1-466): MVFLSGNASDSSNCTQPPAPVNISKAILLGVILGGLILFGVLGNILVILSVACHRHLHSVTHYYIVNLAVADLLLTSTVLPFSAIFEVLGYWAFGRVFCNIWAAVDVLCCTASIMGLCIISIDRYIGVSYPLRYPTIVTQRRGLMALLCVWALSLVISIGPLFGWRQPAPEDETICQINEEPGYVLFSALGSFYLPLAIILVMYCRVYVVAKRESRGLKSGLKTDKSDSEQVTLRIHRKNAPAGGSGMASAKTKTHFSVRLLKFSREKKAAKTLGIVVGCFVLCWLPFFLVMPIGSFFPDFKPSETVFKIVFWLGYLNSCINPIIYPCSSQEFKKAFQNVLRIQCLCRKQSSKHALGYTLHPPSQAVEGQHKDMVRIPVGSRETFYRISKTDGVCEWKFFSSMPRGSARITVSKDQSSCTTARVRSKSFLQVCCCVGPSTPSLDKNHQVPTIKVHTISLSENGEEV
Protocol: Screening Assay: Alpha 1a Adrenergic Receptor Binding
Membranes prepared from the stably transfected human alpha 1a cell line (ATCC CRL 11140) were used to identify compounds that bind to the human alpha 1a adrenergic receptor. These competition binding reactions (total volume=200 μl) contained 50 mM Tris-HCl pH. 7.4, 5 mM EDTA, 150 mM NaCl, 100 pM [^125 I]-HEAT, membranes prepared from the alpha 1a cell line and increasing amounts of unlabeled ligand. Reactions were incubated at room temperature for one hour with shaking. Reactions were filtered onto Whatman GF/C glass fiber filters with a Inotec 96 well cell harvester. Filters were washed three times with ice cold buffer and bound radioactivity was determined (Ki).

[2] = tested on: human alpha 1b adrenergic receptor; experiment: Selective Binding Assay, alpha 1b ([125I]-HEAT competition); settings: alpha 1a versus alpha 1b
Protocol: Membranes prepared from stably transfected human alpha 1d and alpha 1b cell lines (ATCC CRL 11138 and CRL 11139, respectively) were used to identify compounds that selectively bind to the human alpha 1a adrenergic receptor. These competition binding reactions (total volume=200 μl) contained 50 mM Tris-HCl pH. 7.4, 5 mM EDTA, 150 mM NaCl, 100 pM [^125 I]-HEAT, membranes prepared from cell lines transfected with the respective alpha 1 subtype expression plasmid and increasing amounts of unlabeled ligand. Reactions were incubated at room temperature for one hour with shaking. Reactions were filtered onto Whatman GF/C glass fiber filters with a Inotec 96 well cell harvester. Filters were washed three times with ice cold buffer and bound radioactivity was determined (Ki).

Structure (SMILES)	Ki ([1]; human alpha 1a cell line membranes, 100 pM [125I]-HEAT, room temperature, one hour) [nM]	selectivity in binding to alpha 1a receptors versus alpha 1b [2]	alpha 1 antagonist activity of the (S) enantiomer relative to the (R) enantiomer ([1]; enantiomer comparison, in words, test not specified)
CC1=C(C(=O)NCCCN2CCC(C#N)(c3ccccn3)CC2)[C@@H](c2ccc(F)c(F)c2)CC(=O)N1C [Example 17, 4-(R)-(3 ,4-Difluorophenyl)-1,6-dimethyl-3,4-dihydro-2-pyridinone-5-carboxylic acid{3-[4-(2-pyridyl)-4-cyano-piperidine-1-yl]-propyl}amide]	257	about 8 fold	–
CC1=C(C(=O)NCCCN2CCC(c3ccc(F)cc3)CC2)[C@H](c2ccc(F)c(F)c2)CC(=O)N1 [Example 18 (S enantiomer), 4-(S)-(3,4-difluorophenyl)-6-methyl-3,4-dihydro-2-pyridinone-5-carboxylic acid{3-[4-(4-fluorophenyl)-piperidine-1-yl]-propyl}amide]	–	–	less active
